How the values were obtained:
[1] = test system: p38 and 1-kBα; test: LPS-induced signalling pathway phosphorylation; format: cell-based
Protocol: (A) Thioglycollate-elicited macrophages (1×10^6/ml) were stimulated with either LPS (5 μg/ml), zymosan (ZYM, 50 μg/ml), MDP (25 μg/ml), or Poly(I:C) (50 μg/ml) in the presence or absence of VGX-1027 (10 μg/ml). TNF-α was measured 48 hours post treatment. (B) Relative phosphorylations of 1-κBα and p38 were measured at the indicated time points following stimulation with LPS (5 μg/ml). The y-axis is presented as fold change in comparison to the values obtained from LPS-treated cultures alone. * p<0.05.
(Jiang et al., J. Biol. Chem., (278) 16713-16719 (2003). In addition, it was observed that VGX-1027 inhibited LPS-induced phosphorylation of p38 and 1-kBα, indicating VGX-1027 inhibits a protein upstream of both the p38 and NF-κB, signaling pathways (FIG. 4b).

[2] = test system: NF-kB; test: NF-kB activation in human macrophages; format: cell-based; conditions: LPS induced, monocyte-derived human macrophages
[3] = test system: spontaneous diabetes; test: Spontaneous diabetes in NOD mice; format: in vivo; conditions: i.p. 20 mg/kg 6 times a week, week 12 to 25
Protocol: (A) Euglycaemic female 12 week old NOD mice were treated intraperitoneally with either 20 mg/kg bw VGX-1027 or its vehicle six times a week from the 12th until the 25th week of age. An additional control group of mice was left untreated. Each group consisted of 16 mice. The data are representative of two independent experiments that were merged because of interstudies variability lower than 10%. Statistical analysis was performed by Logrank (Mantel-Cox). (B) Plasma glucose levels in control CBA/H mice receiving STZ (40 mg/kg/day, for 5 consecutive days) in conjunction with 12 daily intreperitoneum injections of vehicle (STZ), or in mice treated with STZ and VGX-1027 given as a continuous 12-day treatment. 100 mg/kg bw of VGX-1027, administered orally from day −1 to day +10. Results from a representative experiment are presented as mean±SD for seven to eight mice per group. *p<0.05 refers to treatment with MLD-STZ.

[4] = test system: endotoxin-induced uveitis; test: Endotoxin-induced uveitis (EIU); format: in vivo, Lewis rats
Protocol: Rats were treated with VGX-1027 at 30 minutes (A) and 6 and 12 hours (B) after LPS injection […]). […] were evaluated 16 hours post LPS injection. Dexamethasone (1 mg/kg) was administered as a positive control. *p<0.0001 vs. vehicle.
Chronic intraocular inflammation denotes a heterogeneous group of diseases that is a leading cause of acquired blindness in adults. Uveitis refers to inflammation of the uvea, which is the vascular tunic or middle coat of the eye, and is responsible for approximately 3% of blindness in the United States. Unlike other autoimmune conditions with known etiologies, uveitis manifests in a number of inflammatory syndromes including Crohn's disease, Behcet's disease, sarcoidosis, and others (Yeh et al., Semin. Immunopathol., (30) 145-164 (2008)). To study the possible utility of VGX-1027 in treating ocular inflammatory conditions, we injected LPS into footpads of Lewis Rats to induce uveitis. After 16 hours post LPS injection, the rats were sacrificed, and their eyes and aqueous humor were collected to study serological, immunological, and histological signs of EIU. The development of EIU was graded on the following scale: (0) no inflammatory reaction; (1) discrete dilatation of the iris and conjunctival vessels; (2) moderate dilatation of the iris and conjunctival vessels; (3) intense iridal hyperaemia with flare in anterior chamber; and (4) same clinical signs as grade 3 plus the presence of fibrinous exudate in the pupillary area with intense flare in the anterior chamber.

[5] = Twenty-eight day toxicology study in dogs; format: in vivo; conditions: 28 days, highest dose 100 mg/kg/day
Protocol: (§1) Twenty-eight day toxicology studies were performed in both mice and dogs with increasing concentration to achieve toxicity. The following are the results of those studies.

[6] = Twenty-eight day toxicology study in mice; format: in vivo; conditions: 28 days, highest dose 500 mg/kg/day
Protocol: as §1

[7] = test system: In vitro-derived human DCs; test: LPS-induced cytokine production of dendritic cells; format: cell-based; conditions: LPS 5 μg/ml, 10 mM, 72 hours
Protocol: In vitro-derived human DCs were treated with LPS (5 μg/ml), with or without VGX-1027 (10 mM) for 72 hours. Concentrations of the cytokines in the media were measured via ELISA.

[8] = Stability in human liver S9 fractions; format: in vitro ADME; conditions: with phase 1 and 2 cofactors, read-out: t1/2 in human liver S9 fractions
Protocol: (§2) The highest plasma concentrations generally occurred in 1-2 hours. […] The highest level of inhibition was ˜35% for 2C19 at a 30 μM concentration. […] Lastly, VGX-1027 is stable in human liver S9 fractions (with phase 1 and 2 cofactors) with t1/2>90 minutes, which indicates a low likelihood of metabolism in the liver.

[9] = Oral absorption in dogs; format: in vivo
Protocol: as §2

[10] = test system: DNBS-induced colitis; conditions: DNBS model; Mangano et al. 2008; cited from earlier work
[11] = test system: splenic mononuclear cells (SMNC); test: In vitro proliferation and cytokine synthesis of splenic mononuclear cells; format: cell-based, mice
Excerpt: Peritoneal macrophages (PM) and splenic mononuclear cells (SMNC) were isolated from normal mice, cultured in nutrient medium and stimulated with LPS and/or ConA in the absence or presence of VGX-1027. […] VGX-1027 had no effect on MIF expression in either cell type, on proliferation of SMNC, and on IL-10 and Interferon (IFN) γ production by SMNC.

[12] = test system: SEB-induced lethal shock; design: species or system mice; conditions: mouse, in vivo
[13] = Oral absorption in mice; format: in vivo
Protocol: as §2

In the case of `O=C(O)CC1CC(c2ccccc2)=NO1` (stereo not drawn) [VGX-1027, 3-phenyl-4,5-dihydro-5-isoxazoleacetic acid], the ERK pathway [1] was “up-regulation”, the “phosphorylation of 1-kBα” value ([1]; LPS-induced) was “inhibited” and the “phosphorylation of p38” value ([1]; LPS-induced) was “inhibited”. The “DNA binding of NF-kB” value [2] was “powerfully inhibits in a dose-dependent fashion”, the “mice developing TID” value ([3]; by 25 weeks) was 31.3% and the “tolerability of prolonged treatment” value [3] was “well tolerated”. For the same compound, the “inflammatory cytokines in the aqueous humor” value ([4]; LPS-induced increase) was “decreased”, the “protein in the aqueous humor” value ([4]; LPS-induced increase) was “decreased” and the clinical inflammation score ([4]; administered 30 minutes after LPS) was “significantly lower”. The clinical inflammation grade ([4]; administered 12 hours post LPS) was “not observed”, the “infiltration of cells into the iris ciliary body” value ([4]; rat, in vivo) was “decreased” and the early deaths [5] was 3. The toxicology findings [6] was “notable changes found in kidneys, liver, spleen, testis, epidydimus and bladder”, the IL-6 production [7] was “dramatically repressed” and the IL-18 production [7] was “dramatically repressed”. The IL-23 production [7] was “dramatically repressed”, the TNF-α production [7] was “dramatically repressed” and the half-life [8] was > 90 min. The oral absorption [9] was “rapidly absorbed”, the “time of highest plasma concentrations” value [9] was 1 to 2 h and the “colonic production of proinflammatory cytokines (IL-1β, TNF-α, IL-12p70, IFN-γ)” value [10] was “reduced colonic production”. The IL-10 production [11] was “no effect”, the “Interferon (IFN) γ production” value [11] was “no effect” and the MIF expression [11] was “no effect”. For the same compound, the proliferation [11] was “no effect”, the TNF-α production ([11]; LPS and/or ConA stimulated) was “markedly inhibited” and the “symptomology associated with SEB challenge” value [12] was “attenuated”. The survival ([12]; ip) was 50%, the oral absorption [13] was “rapidly absorbed” and the “time of highest plasma concentrations” value [13] was 1 to 2 h.
